According to patent publication US10695321B2, “Use of glycopyrrolate for treating tachycardia” (Heptares Therapeutics Limited, priority 2011, dated 2020):

System: subjects with COPD
Assay: Phase IIa placebo-controlled crossover dose-ranging study, heart rate (vital signs) after single inhaled dose
Format: in vivo, human
Settings: for Adjusted Mean for Average Change in Heart Rate from Test day Baseline: ANCOVA
Method: The study was a Phase IIa, multi-centre, randomised, double-blind, placebo-controlled, crossover, dose-ranging study using four dose levels of glycopyrronium bromide in subjects with COPD. A total of 40 subjects were required to complete the study.
Subjects were randomised to receive a single inhaled dose of 20, 125, 250 and 400 μg of glycopyrronium bromide in ascending order, with a placebo dose randomised into the sequence over 5 study visits. Subjects were randomised to receive treatment on Study Day 1 prior to dosing. All doses, including placebo, were administered using the Miat Monohaler.
The Treatment period then consisted of five study visits (separated by a 5-14-day wash-out period), during which subjects were dosed with a single inhaled dose of glycopyrronium bromide using a Miat Monohaler, in ascending order (20, 125, 250 or 400 μg). A placebo was randomly administered (using a Miat Monohaler) at one of the study visits; subsequent visits continued with the next highest dose of glycopyrronium bromide to that which was administered prior to the placebo.
All subjects were scheduled to be dosed between 08:00 and 10:00 am. For individual subjects, dosing was at the same time of day (±30 minutes). At each dosing visit, subjects received a single dose of glycopyrronium bromide or placebo administered via Miat Monohaler. Each different dose (20, 125, 250 or 400 μg) was contained in one capsule. An appropriate number of Miat Monohalers to conduct the study was also supplied to the site. A new Miat Monohaler was used to administer each dose at each visit.
copyrronium bromide was presented in size 3, white opaque, hard, gelatin capsules packaged in aluminium pouches. The capsules were presented in four dose strengths containing 20, 125, 250, or 400 μg glycopyrronium bromide. In addition to glycopyrronium bromide, excipient present in the capsule formulation consisted of the PowderHale^TM formulation of lactose and magnesium stearate.
All vital signs were measured on each study day, including heart rate (with the subject semi-supine for 5 minutes prior to measurement); blood pressure; respiratory rate and temperature were measured at each visit and before receiving study medication (pre-treatment), if applicable. Blood pressure and heart rate were also measured at 45, 90 minutes and 5, 10, 20 and 30 hours post-treatment on study days.
The statistical analyses were to be reported using summary tables and data listings. Statistical tests for the evaluation were to be performed at the 0.05 significance level using a two-sided test.
All analyses and tabulations were to be performed using SASS Version 6.12 on a PC platform. Continuous variables were to be summarised with sample size (n), mean, standard deviation (SD), minimum, median, and maximum. […] The mean was to have one extra decimal place and the standard deviation was to have two extra decimal places. Categorical variables were to be summarised with number and percentage of subjects.

[1] = 250 μg single inhaled dose, 90 mins post-dose
[2] = 250 μg single inhaled dose, 5 hrs post-dose
[3] = 250 μg single inhaled dose, 10 hrs post-dose
[4] = 250 μg single inhaled dose, 20 hrs post-dose
[5] = 250 μg single inhaled dose, 30 hrs post-dose
[6] = 250 μg single inhaled dose, pre-dose to 45 mins post-dose
[7] = 250 μg single inhaled dose, pre-dose to 90 mins post-dose
[8] = 250 μg single inhaled dose, pre-dose to 5 hours post-dose
[9] = 250 μg single inhaled dose, pre-dose to 10 hours post-dose
[10] = 250 μg single inhaled dose, pre-dose to 20 hours post-dose
[11] = 250 μg single inhaled dose, pre-dose to 30 hours post-dose
[12] = 400 μg single inhaled dose, 45 mins post-dose
[13] = 400 μg single inhaled dose, 90 mins post-dose
[14] = 400 μg single inhaled dose, 5 hrs post-dose
[15] = 400 μg single inhaled dose, 10 hrs post-dose
[16] = 400 μg single inhaled dose, 20 hrs post-dose
[17] = 400 μg single inhaled dose, 30 hrs post-dose
[18] = 400 μg single inhaled dose, pre-dose to 45 mins post-dose
[19] = 400 μg single inhaled dose, pre-dose to 90 mins post-dose
[20] = 400 μg single inhaled dose, pre-dose to 10 hours post-dose
[21] = 400 μg single inhaled dose, pre-dose to 30 hours post-dose

Compound: C[N+]1(C)CCC(OC(=O)C(O)(c2ccccc2)C2CCCC2)C1 (stereo not drawn) [glycopyrronium bromide]
- Heart Rate Median (250 μg single inhaled dose, 45 mins post-dose): 64.0 bpm
- Heart Rate Mean [1]: 68.2 bpm
- Heart Rate Median [1]: 69.0 bpm
- Heart Rate Mean [2]: 68.4 bpm
- Heart Rate Median [2]: 68.5 bpm
- Heart Rate Mean [3]: 66.3 bpm
- Heart Rate Median [3]: 65.0 bpm
- Heart Rate Mean [4]: 66.6 bpm
- Heart Rate Median [4]: 65.0 bpm
- Heart Rate Mean [5]: 70.7 bpm
- Heart Rate Median [5]: 71.5 bpm
- Heart Rate Change from Test day Baseline, Mean [6]: −4.6 bpm
- Heart Rate Change from Test day Baseline, Median [6]: −4.5 bpm
- Heart Rate Change from Test day Baseline, Mean [7]: −1.7 bpm
- Heart Rate Change from Test day Baseline, Median [7]: −1.0 bpm
- Heart Rate Change from Test day Baseline, Mean [8]: −1.4 bpm
- Heart Rate Change from Test day Baseline, Median [8]: 0.0 bpm
- Heart Rate Change from Test day Baseline, Mean [9]: −3.6 bpm
- Heart Rate Change from Test day Baseline, Median [9]: −4.0 bpm
- Heart Rate Change from Test day Baseline, Mean [10]: −3.4 bpm
- Heart Rate Change from Test day Baseline, Median [10]: −4.0 bpm
- Heart Rate Change from Test day Baseline, Mean [11]: 1.0 bpm
- Heart Rate Change from Test day Baseline, Median [11]: 2.5 bpm
- Adjusted Mean for Average Change in Heart Rate from Test day Baseline (250 μg, to 45 mins post-dose): −3.693 bpm
- Dose v Placebo Difference, adjusted mean change in Heart Rate from Test day Baseline (250 μg, to 45 mins post-dose, p-value 0.324): −1.364 bpm
- Adjusted Mean for Average Change in Heart Rate from Test day Baseline (250 μg, to 90 mins post-dose): −0.763 bpm
- Dose v Placebo Difference, adjusted mean change in Heart Rate from Test day Baseline (250 μg, to 90 mins post-dose, p-value 0.203): −2.035 bpm
- Adjusted Mean for Average Change in Heart Rate from Test day Baseline (250 μg, to 5 hours post-dose): −0.586 bpm
- Dose v Placebo Difference, adjusted mean change in Heart Rate from Test day Baseline (250 μg, to 5 hours post-dose, p-value 0.072): −2.633 bpm
- Adjusted Mean for Average Change in Heart Rate from Test day Baseline (250 μg, to 10 hours post-dose): −4.657 bpm
- Dose v Placebo Difference, adjusted mean change in Heart Rate from Test day Baseline (250 μg, to 10 hours post-dose, p-value 0.078): −2.832 bpm
- Adjusted Mean for Average Change in Heart Rate from Test day Baseline (250 μg, to 20 hours post-dose): −1.858 bpm
- Dose v Placebo Difference, adjusted mean change in Heart Rate from Test day Baseline (250 μg, to 20 hours post-dose, p-value 0.773): −0.390 bpm
- Adjusted Mean for Average Change in Heart Rate from Test day Baseline (250 μg, to 30 hours post-dose): 1.436 bpm
- Dose v Placebo Difference, adjusted mean change in Heart Rate from Test day Baseline (250 μg, to 30 hours post-dose, p-value 0.581): 0.817 bpm
- Statistical significance (p) of heart rate change relative to placebo (400 μg dose, 45 minute to 10 hour timepoints inclusive): < 0.05
- Heart Rate Mean [12]: 65.4 bpm
- Heart Rate Median [12]: 65.0 bpm
- Heart Rate Mean [13]: 67.1 bpm
- Heart Rate Median [13]: 67.5 bpm
- Heart Rate Mean [14]: 69.7 bpm
- Heart Rate Median [14]: 69.0 bpm
- Heart Rate Mean [15]: 65.7 bpm
- Heart Rate Median [15]: 65.5 bpm
- Heart Rate Mean [16]: 66.7 bpm
- Heart Rate Median [16]: 66.0 bpm
- Heart Rate Mean [17]: 70.9 bpm
- Heart Rate Median [17]: 70.0 bpm
- Heart Rate Change from Test day Baseline, Mean [18]: −7.4 bpm
- Heart Rate Change from Test day Baseline, Median [18]: −6.5 bpm
- Heart Rate Change from Test day Baseline, Mean [19]: −5.7 bpm
- Heart Rate Change from Test day Baseline, Median [19]: −4.5 bpm
- Heart Rate Change from Test day Baseline, Mean (400 μg single inhaled dose, pre-dose to 5 hours post-dose): −3.1 bpm
- Heart Rate Change from Test day Baseline, Mean [20]: −6.4 bpm
- Heart Rate Change from Test day Baseline, Median [20]: −5.5 bpm
- Heart Rate Change from Test day Baseline, Mean (400 μg single inhaled dose, pre-dose to 20 hours post-dose): −5.6 bpm
- Heart Rate Change from Test day Baseline, Mean [21]: −1.4 bpm
- Heart Rate Change from Test day Baseline, Median [21]: 0.0 bpm
- Adjusted Mean for Average Change in Heart Rate from Test day Baseline (400 μg, to 45 mins post-dose): −7.052 bpm
- Dose v Placebo Difference, adjusted mean change in Heart Rate from Test day Baseline (400 μg, to 45 mins post-dose, p-value 0.005): −4.723 bpm
- Adjusted Mean for Average Change in Heart Rate from Test day Baseline (400 μg, to 90 mins post-dose): −4.315 bpm
- Dose v Placebo Difference, adjusted mean change in Heart Rate from Test day Baseline (400 μg, to 90 mins post-dose, p-value 0.004): −5.587 bpm
- Adjusted Mean for Average Change in Heart Rate from Test day Baseline (400 μg, to 5 hours post-dose): −3.455 bpm
- Dose v Placebo Difference, adjusted mean change in Heart Rate from Test day Baseline (400 μg, to 5 hours post-dose, p-value 0.002): −5.502 bpm
- Adjusted Mean for Average Change in Heart Rate from Test day Baseline (400 μg, to 10 hours post-dose): −6.919 bpm
- Dose v Placebo Difference, adjusted mean change in Heart Rate from Test day Baseline (400 μg, to 10 hours post-dose, p-value 0.008): −5.095 bpm
- Adjusted Mean for Average Change in Heart Rate from Test day Baseline (400 μg, to 20 hours post-dose): −2.371 bpm
- Dose v Placebo Difference, adjusted mean change in Heart Rate from Test day Baseline (400 μg, to 20 hours post-dose, p-value 0.583): −0.903 bpm
- Adjusted Mean for Average Change in Heart Rate from Test day Baseline (400 μg, to 30 hours post-dose): 0.475 bpm
- Dose v Placebo Difference, adjusted mean change in Heart Rate from Test day Baseline (400 μg, to 30 hours post-dose, p-value 0.935): −0.143 bpm
- Mean heart rate from Test Day Baseline, dose relation (20-400 μg inhaled, up to 5 hours post-dose): dose dependent decrease
- Subsequent tachycardic effect (any of the inhaled doses, up to 30 hours): not evident
